# Source: patent US20190203240A1, “METHODS FOR THE PRODUCTION OF RHAMNOSYLATED FLAVONOIDS” (Universitaet Hamburg, priority 2016, published 2019)
# Values joined by “and” are separate entries in the source; they are usually repeats but may differ in a detail not shown here. Identical values can stand only once.
# Experiments:
# [1] = system: PGE2; experiment: Anti-inflammatory potential: secreted PGE2 in stimulated NHEK (ELISA); format: cell-based, human; conditions: PMA stimulation, 100 μM
# Description: (§1) NHEK were pre-incubated for 24 h with the test compounds. The medium was replaced with the NHEK culture medium containing the inflammatory inducers (PMA or Poly I:C) and incubated for another 24 hours. Positive and negative controls ran in parallel. At the endpoint the culture supernatants were quantified of secreted IL-8, PGE2 and TNF-α, by means of ELISA.
# [2] = system: HaCaT cells; experiment: Glucose uptake (2-NBDG) in HaCaT keratinocytes; format: cell-based; conditions: +2NBDG 50 μM, 24 h
# Description: HaCaT cells (5×10^4) were seeded in 96-well black plates and incubated for 24 h. Then, medium was removed and the cells cultivated in OptiMEM, labeled with 50 μM 2-NBDG (2-[N-(7-nitrobenz-2-oxa-1,3-diazol-4-yl) amino]-2-deoxy-D-glucose and treated with the test substances or the positive control, Rosiglitazone, for 24 h. Medium was removed and the wells were carefully washed with PBS and incubated in PBS (100 μl/well). Finally the fluorescence was measured using the Incucyte FLR software, the data were analyzed by the total green object integrated intensity (GCU×μm2×Well) of the imaging system IncuCyte HD (Essen BioScience). The fluorescence of Rosiglitazone is taken as 100% of glucose uptake, and the glucose uptake was calculated as (% Glucose uptake)=100(T−B)/(R−B), where T (treated) is the fluorescence of test substance-treated cells, B (Basal) is the fluorescence of 2-NBDG cells and […] is the fluorescence of cells treated with Rosiglitazone.
# [3] = system: lipid peroxides (C11-fluor) in NHEK cells; experiment: Protection against UV-induced lipid peroxide in NHEK (C11-fluor probe, flow cytometry); format: cell-based, human
# Description: Pre-incubated NHEK were incubated with the test compound for 24 h. Then the specific fluorescence probe for the measurement of hydrogen peroxide (DHR) or lipid peroxides (C11-fluor) was added and incubated for 45 min. Irradiation occurred with in H2O2 determination UVB at 180 mJ/cm^2 (+UVA at 2839 mJ/cm^2) or UVB at 240 mJ/cm^2 (+UVA at 3538 mJ/cm^2) in lipid peroxide, respectively, using a SOL500 Sun Simulator lamp. After irradiation the cells were post-incubated for 30 min before flow-cytometry analysis.
# [4] = system: VEGF; experiment: Stimulation of VEGF release in NHDF (ELISA); format: cell-based, human; conditions: 72 hours, 100 μM
# Description: (§2) Tests were performed with normal human dermal fibroblast cultures at the 8th passage. Cells were grown in DMEM supplemented with glutamine at 2 mM, penicillin at 50 U/mL and streptomycin (50 μg/mL) and 10% of fetal calf serum (FCS) at 37° C. in a 5% CO2 atmosphere.
# (§3) Fibroblasts were cultured for 24 hours before the cells were incubated with the test compounds for further 72 hours. After the incubation the culture supernatants were collected in order to measure the released quantities of procollagen I, VEGF, and fibronectin by means of ELISA. Reference test compounds were vitamin C (procollagen I), PMA (VEGF), and TGF-β (fibronectin).
# [5] = system: TNF-α; experiment: Anti-inflammatory potential: secreted TNF-α in stimulated NHEK (ELISA); format: cell-based, human; conditions: poly(I:C) stimulation, 100 μM
# Description: as §1
# [6] = system: STAT3; experiment: STAT3 activity in HeLa-STAT3-luc cells stimulated with IFN-γ (luciferase); format: cell-based; conditions: +IFNγ 25 U/ml
# Description: HeLa-STAT3-luc cells were stably transfected with the plasmid 4×M67 pTATA TK-Luc. Cells (20×10^3 cells/ml) were seeded 96-well plate the day before the assay. Then the cells were treated with the test substances for […] and then stimulated with IFN-γ 25 IU/ml. After 6 h, the cells were washed twice with PBS and lysed in […] lysis buffer containing 25 mM Tris-phosphate (pH 7.8), 8 mM MgCl2, 1 mM DTT, 1% Triton X-100, and 7% glycerol during […] at RT in a horizontal shaker. Luciferase activity was measured using GloMax 96 microplate luminometer (Promega) following the instructions of the luciferase assay kit (Promega, Madison, Wis., USA). […] The experiments for each concentration of the test items were done in triplicate wells.
# [7] = system: procollagen I; experiment: Stimulation of procollagen I synthesis in NHDF (ELISA); format: cell-based, human; conditions: 72 hours, 100 μM
# Description: as §2, §3
# [8] = system: fibronectin; experiment: Stimulation of fibronectin synthesis in NHDF (ELISA); format: cell-based, human; conditions: 100 μM
# Description: as §2, §3
# [9] = system: matrix metallopeptidase 1 (MMP-1); experiment: MMP-1 release in UVA-irradiated NHDF (ELISA); format: cell-based, human
# Description: as §2
# Human fibroblasts were cultured for 24 hours before the cells were pre-incubated with the test or reference compounds (dexamethasone) for another 24 hours. The medium was replaced by the irradiation medium (EBSS, CaCl2) 0.264 g/L, MgClSO4 0.2 g/L) containing the test compounds) and cells were irradiated with UVA (15 J/cm^2). The irradiation medium was replaced by culture medium including again the test compounds incubated for 48 hours. After incubation the quantity of matrix metallopeptidase 1 (MMP-1) in the culture supernatant was measured using an ELISA kit.
# [10] = system: IL-8; experiment: Anti-inflammatory potential: secreted IL-8 in stimulated NHEK (ELISA); format: cell-based, human; conditions: 100 μM; for Cytokine [pg/mL] IL-8: single values
# Description: as §1
# [11] = 240 mJ/cm^2 UVB (3538 mJ/cm^2 UVA), 100 μM
# [12] = 240 mJ/cm^2 UVB (3538 mJ/cm^2 UVA), 100 μM, single values
# [13] = NHDF irradiated 15 J/cm^2 UVA, 100 μM
smiles,measurement,setting,value
"C[C@@H]1O[C@@H](Oc2cc(O)cc3c2C(=O)CC(c2ccc(O)cc2)O3)[C@H](O)[C@H](O)[C@H]1O (mixture of isomers) [NR1, Naringenin-5-O-α-L-rhamnoside]",Cytokine [pg/mL] PGE2 Mean,[1],1271 pg/mL
same,PGE2 % stim. control,[1],81%
same,Cytokine [pg/mL] PGE2,[1]; single values,851 pg/mL and 1691 pg/mL
same,% Glucose uptake (Rosiglitazone = 100%),[2]; 25 μM,87.7%
same,Mean (fluorescence),[2]; 25 μM,768005
same,Measure 1 (fluorescence),[2]; 25 μM,493970
same,Measure 2 (fluorescence),[2]; 25 μM,1160754
same,Measure 3 (fluorescence),[2]; 25 μM,649291
same,RFU specific,[2]; 25 μM,761691 RFU
same,% Glucose uptake (Rosiglitazone = 100%),[2]; 50 μM,29.6%
same,Mean (fluorescence),[2]; 50 μM,263881
same,Measure 1 (fluorescence),[2]; 50 μM,278134
same,Measure 2 (fluorescence),[2]; 50 μM,256310
same,Measure 3 (fluorescence),[2]; 50 μM,257198
same,RFU specific,[2]; 50 μM,257567 RFU
same,C11-fluor (AU) Mean (1/GMFI),[3]; [11],4.3E−04 AU
same,lipid peroxide % Irradiated control,[3]; [11],93%
same,lipid peroxide Protection %,[3]; [11],9%
same,C11-fluor (AU) 1/GMFI,[3]; [12],4.1E−04 AU and 4.4E−04 AU
same,C11-fluor (AU) GMFI,[3]; [12],2414 AU and 2255 AU
same,anti-oxidative function on lipid peroxides,[3]; UV irradiation,anti-oxidative function
same,Mean VEGF,[4],92 pg/mL
same,VEGF % Control,[4],128%
same,VEGF,[4]; single values,90 pg/mL and 94 pg/mL
same,Cytokine [pg/mL] TNFα Mean,[5],516 pg/mL
same,TNFα % stim. control,[5],92%
same,Cytokine [pg/mL] TNFα,[5]; single values,516 pg/mL
same,% Activation (STAT3; IFNγ = 100%),[6]; 25 μM,58.47%
same,RLU 1,[6]; 25 μM,10925 RLU
same,RLU 2,[6]; 25 μM,8301 RLU
same,RLU 3,[6]; 25 μM,8752 RLU
same,RLU MEAN,[6]; 25 μM,9326 RLU
same,RLU specific,[6]; 25 μM,7319 RLU
same,% Activation (STAT3; IFNγ = 100%),[6]; 50 μM,69.97%
same,RLU 1,[6]; 50 μM,18272 RLU
same,RLU 2,[6]; 50 μM,6426 RLU
same,RLU 3,[6]; 50 μM,7599 RLU
same,RLU MEAN,[6]; 50 μM,10766 RLU
same,RLU specific,[6]; 50 μM,8758 RLU
same,Procollagen I % Control,[7],66%
same,Procollagen I % Stimulation,[7],−34%
same,Procollagen I Mean,[7],1097 ng/mL
same,Procollagen I,[7]; single values,1334 ng/mL and 860 ng/mL
same,fibronectin synthesis increase,[8],20%
same,Fibronectin % Control,[8]; 72 h incubation,120%
same,Fibronectin % Stimulation,[8]; 72 h incubation,20%
same,"Fibronectin (ng/ml), single replicates",[8]; 72 h incubation,6833 ng/mL and 7820 ng/mL
same,Fibronectin Mean,[8]; 72 h incubation,7326 ng/mL
same,MMP-1 % Irradiated control,[9]; [13],338%
same,MMP-1 % Protection,[9]; [13],−372%
same,"MMP-1 (ng/ml), single replicates",[9]; [13],211.7 ng/mL and 268.8 ng/mL
same,Mean MMP-1,[9]; [13],240.3 ng/mL
same,upregulation of MMP-1 biosynthesis,"[9]; NHDF, UV-irradiated conditions",~4 fold
same,Cytokine [pg/mL] IL-8 Mean,[10]; PMA stimulation,2564 pg/mL
same,IL-8 % stim. control,[10]; PMA stimulation,88%
same,Cytokine [pg/mL] IL-8,[10]; PMA stimulation,2572 pg/mL and 2555 pg/mL
same,Cytokine [pg/mL] IL-8 Mean,[10]; poly(I:C) stimulation,3154 pg/mL
same,IL-8 % stim. control,[10]; poly(I:C) stimulation,86%
same,Cytokine [pg/mL] IL-8,[10]; poly(I:C) stimulation,3055 pg/mL and 3253 pg/mL
